“Also recorded” adds a separate entry of the source.
Key:
[1] = tested on: fecal coliforms (E. coli); assay: Re-growth of fecal coliforms (spiked E. coli) in treated biosolids (U.S. EPA method 1680, MPN); format: cell-based; conditions: for fecal coliforms, Plate count: Sep. 11, 2009
[2] = tested on: Poliovirus Type 1; conditions: cited from earlier work
[3] = tested on: Salmonella Typhimurium; assay: Re-growth of spiked Salmonella in treated biosolids (U.S. EPA method 1682, MPN); format: cell-based; conditions: for Salmonella, Plate count: Sep. 11, 2009
[4] = tested on: estrogenic activity of 17-β-estradiol (E2); human estrogen receptor; assay: Estrogenic activity, YES assay (recombinant yeast); format: cell-based, Saccharomyces cereviciae; conditions: for % Reduction in Estrogenic Activity, Solid Portion (n = 3): E2 spiked
[5] = tested on: Escherichia coli (ATCC #25922); format: cell-based
[6] = tested on: somatic coliphages (phi X 174); format: cell-based, coliphage phi X 174
[7] = tested on: Salmonella Typhimurium; format: cell-based
[8] = tested on: male-specific coliphages (MS-2); format: cell-based, coliphage MS-2
[9] = tested on: aerobic spores (Bacillus subtilis); format: cell-based
[10] = tested on: Poliovirus Type 1; format: cell-based, Poliovirus-1
[11] = tested on: spiked organisms; assay: Preliminary studies using PBS: ferrate with E-beam on spiked organisms; format: cell-based; conditions: ferrate 2 ppm or 4 ppm in combination with E-beam (6 kGy, 8 kGy and 12 kGy)
[12] = tested on: estrogenic activity of 17-β-estradiol (E2); human estrogen receptor (ER) α; assay: Estrogenic activity, ZR-75 breast cancer cell ERE-Luc reporter assay; format: cell-based; conditions: E2 spiked
[13] = tested on: estrogenic activity of 17-β-estradiol (E2); human estrogen receptor; conditions: it has been shown; cited from earlier work
[14] = Table 25, ClO2 + Irradiated, Oct. 5, 2009
[15] = Table 25, ClO2 + Irradiated, Sep. 18, 2009
[16] = Table 25, ClO2 + Irradiated, Sep. 25, 2009
[17] = Table 26, ClO2 + Irradiated, Oct. 5, 2009
[18] = Table 26, ClO2 + Irradiated, Sep. 18, 2009
[19] = Table 26, ClO2 + Irradiated, Sep. 25, 2009
[20] = Table 23, ClO2 + Irradiated, Oct. 5, 2009
[21] = Table 23, ClO2 + Irradiated, Sep. 18, 2009
[22] = Table 23, ClO2 + Irradiated, Sep. 25, 2009
[23] = Table 24, ClO2 + Irradiated, Oct. 5, 2009
[24] = Table 24, ClO2 + Irradiated, Sep. 18, 2009
[25] = Table 24, ClO2 + Irradiated, Sep. 25, 2009
[26] = Table 28, 50 ppm + E-Beam (8 kGy)
[27] = Table 28, 100 ppm + E-Beam (8 kGy)
[28] = Table 28, 200 ppm + E-Beam (8 kGy)
[29] = Table 29, 50 ppm + E-Beam (8 kGy)
[30] = Table 29, 100 ppm + E-Beam (8 kGy)
[31] = Table 29, 200 ppm + E-Beam (8 kGy)

## [O][Cl+][O-] [Chlorine Dioxide, chlorine dioxide]
[1]
  re-growth of fecal coliforms (in words): no re-growth
[1]; Table 25 (aerobic sludge inferred), ClO2
  fecal coliforms, Plate count: 4.27E+07
[1]; [14]
  fecal coliforms MPN/4 g dry wt: <0.1803 MPN/4 g dry wt
  fecal coliforms MPN/g dry wt: <0.1803 MPN/g dry wt
[1]; Table 25, ClO2 + Irradiated
  fecal coliforms, Plate count: 0.00E+00
[1]; [15]
  fecal coliforms MPN/4 g dry wt: <0.1803 MPN/4 g dry wt
  fecal coliforms MPN/g dry wt: <0.1803 MPN/g dry wt
[1]; [16]
  fecal coliforms MPN/4 g dry wt: <0.1803 MPN/4 g dry wt
  fecal coliforms MPN/g dry wt: <0.1803 MPN/g dry wt
[1]; Table 25, ClO2, Oct. 5, 2009
  fecal coliforms MPN/4 g dry wt: 1.37E+03 MPN/4 g dry wt
  fecal coliforms MPN/g dry wt: 3.44E+02 MPN/g dry wt
[1]; Table 25, ClO2, Sep. 18, 2009
  fecal coliforms MPN/4 g dry wt: 8.49E+05 MPN/4 g dry wt
  fecal coliforms MPN/g dry wt: 2.12E+05 MPN/g dry wt
[1]; Table 25, ClO2, Sep. 25, 2009
  fecal coliforms MPN/4 g dry wt: 6.47E+03 MPN/4 g dry wt
  fecal coliforms MPN/g dry wt: 1.62E+03 MPN/g dry wt
[1]; Table 26 (anaerobic sludge inferred), ClO2
  fecal coliforms, Plate count: 7.26E+06
[1]; [17]
  fecal coliforms MPN/4 g dry wt: <0.1803 MPN/4 g dry wt
  fecal coliforms MPN/g dry wt: <0.1803 MPN/g dry wt
[1]; Table 26, ClO2 + Irradiated
  fecal coliforms, Plate count: 2.14E+03
[1]; [18]
  fecal coliforms MPN/4 g dry wt: 1.01E+03 MPN/4 g dry wt
  fecal coliforms MPN/g dry wt: 2.53E+02 MPN/g dry wt
[1]; [19]
  fecal coliforms MPN/4 g dry wt: <0.1803 MPN/4 g dry wt
  fecal coliforms MPN/g dry wt: <0.1803 MPN/g dry wt
[1]; Table 26, ClO2, Oct. 5, 2009
  fecal coliforms MPN/4 g dry wt: <0.1803 MPN/4 g dry wt
  fecal coliforms MPN/g dry wt: <0.1803 MPN/g dry wt
[1]; Table 26, ClO2, Sep. 18, 2009
  fecal coliforms MPN/4 g dry wt: 1.02E+05 MPN/4 g dry wt
  fecal coliforms MPN/g dry wt: 2.54E+04 MPN/g dry wt
[1]; Table 26, ClO2, Sep. 25, 2009
  fecal coliforms MPN/4 g dry wt: 1.67E+03 MPN/4 g dry wt
  fecal coliforms MPN/g dry wt: 4.17E+02 MPN/g dry wt
[2]
  time to inactivate clumped poliovirus I aggregates compared to single state viruses: 2.7 times longer
[3]
  re-growth of Salmonella spp. (in words): no re-growth
[3]; Table 23 (% total solid 0.0131, aerobic inferred), ClO2
  Salmonella, Plate count: 2.98E+08
[3]; [20]
  Salmonella MPN/4 g (dry weight): 2.20E+01 MPN/4 g (dry weight)
  Salmonella MPN/4 g (dry weight) based on 2 ml, 1 ml, 0.1 ml: 2.2E+00 MPN/4 g (dry weight)
  Salmonella MPN/ml (wet weight): 0.0072 MPN/ml (wet weight)
[3]; Table 23, ClO2 + Irradiated
  Salmonella, Plate count: 4.43E+05
[3]; [21]
  Salmonella MPN/4 g (dry weight): 1.91E+02 MPN/4 g (dry weight)
  Salmonella MPN/4 g (dry weight) based on 2 ml, 1 ml, 0.1 ml: 1.9E+01 MPN/4 g (dry weight)
  Salmonella MPN/ml (wet weight): 0.0626 MPN/ml (wet weight)
[3]; [22]
  Salmonella MPN/4 g (dry weight): 7.15E+01 MPN/4 g (dry weight)
  Salmonella MPN/4 g (dry weight) based on 2 ml, 1 ml, 0.1 ml: 7.1E+00 MPN/4 g (dry weight)
  Salmonella MPN/ml (wet weight): 0.0234 MPN/ml (wet weight)
[3]; Table 23, ClO2, Oct. 5, 2009
  Salmonella MPN/4 g (dry weight): 7.79E+01 MPN/4 g (dry weight)
  Salmonella MPN/4 g (dry weight) based on 2 ml, 1 ml, 0.1 ml: 7.8E+00 MPN/4 g (dry weight)
  Salmonella MPN/ml (wet weight): 0.0255 MPN/ml (wet weight)
[3]; Table 23, ClO2, Sep. 18, 2009
  Salmonella MPN/4 g (dry weight): 4.91E+03 MPN/4 g (dry weight)
  Salmonella MPN/4 g (dry weight) based on 2 ml, 1 ml, 0.1 ml: 4.9E+02 MPN/4 g (dry weight)
  Salmonella MPN/ml (wet weight): 1.6090 MPN/ml (wet weight)
[3]; Table 23, ClO2, Sep. 25, 2009
  Salmonella MPN/4 g (dry weight): 3.51E+02 MPN/4 g (dry weight)
  Salmonella MPN/4 g (dry weight) based on 2 ml, 1 ml, 0.1 ml: 3.5E+01 MPN/4 g (dry weight)
  Salmonella MPN/ml (wet weight): 0.1151 MPN/ml (wet weight)
[3]; Table 24 (% total solid 0.0312, anaerobic inferred), ClO2
  Salmonella, Plate count: 3.03E+06
[3]; [23]
  Salmonella MPN/4 g (dry weight): 4.41E+01 MPN/4 g (dry weight)
  Salmonella MPN/4 g (dry weight) based on 2 ml, 1 ml, 0.1 ml: 4.4E+00 MPN/4 g (dry weight)
  Salmonella MPN/ml (wet weight): 0.0344 MPN/ml (wet weight)
[3]; Table 24, ClO2 + Irradiated
  Salmonella, Plate count: 3.85E+03
[3]; [24]
  Salmonella MPN/4 g (dry weight): 6.95E+02 MPN/4 g (dry weight)
  Salmonella MPN/4 g (dry weight) based on 2 ml, 1 ml, 0.1 ml: 7.0E+01 MPN/4 g (dry weight)
  Salmonella MPN/ml (wet weight): 0.5422 MPN/ml (wet weight)
[3]; [25]
  Salmonella MPN/4 g (dry weight): 8.03E+01 MPN/4 g (dry weight)
  Salmonella MPN/4 g (dry weight) based on 2 ml, 1 ml, 0.1 ml: 8.0E+00 MPN/4 g (dry weight)
  Salmonella MPN/ml (wet weight): 0.0626 MPN/ml (wet weight)
[3]; Table 24, ClO2, Oct. 5, 2009
  Salmonella MPN/4 g (dry weight): 8.03E+01 MPN/4 g (dry weight)
  Salmonella MPN/4 g (dry weight) based on 2 ml, 1 ml, 0.1 ml: 8.0E+00 MPN/4 g (dry weight)
  Salmonella MPN/ml (wet weight): 0.0626 MPN/ml (wet weight)
[3]; Table 24, ClO2, Sep. 18, 2009
  Salmonella MPN/4 g (dry weight): 2.06E+03 MPN/4 g (dry weight)
  Salmonella MPN/4 g (dry weight) based on 2 ml, 1 ml, 0.1 ml: 2.1E+02 MPN/4 g (dry weight)
  Salmonella MPN/ml (wet weight): 1.6090 MPN/ml (wet weight)
[3]; Table 24, ClO2, Sep. 25, 2009
  Salmonella MPN/4 g (dry weight): 4.46E+02 MPN/4 g (dry weight)
  Salmonella MPN/4 g (dry weight) based on 2 ml, 1 ml, 0.1 ml: 4.5E+01 MPN/4 g (dry weight)
  Salmonella MPN/ml (wet weight): 0.3475 MPN/ml (wet weight)
[4]
  estrogenic activity, E2 spiked (untreated) vs treated samples (in words): no significant difference
  reduction of estrogenic activity (in words): does not reduce
[5]
  log reduction: 4 to 5 log
  log reduction (complete reduction): approximately 8 log
  reduction (in words): did not exhibit any reduction
[6]
  inactivation (in words): effectively eliminated; also recorded: significant reductions
[7]
  log reduction: 3 log
  reduction (in words): did not show any significant reduction

## C[C@]12CC[C@@H]3c4ccc(O)cc4CC[C@H]3[C@@H]1CC[C@@H]2O [E2, 17-β-estradiol, reference compound]
[4]; E2 standards in DMSO
  upper limit of the dynamic range of the YES assay (saturation): 60 nM

## [O]=[Fe](=[O])([O-])[O-] [Ferrate, ferrate]
[8]
  inactivation (in words): Complete inactivation
[9]
  log reduction of spore formers: two to three
  reduction of spore formers (in words): slight reduction
[10]
  inactivation (in words): complete elimination
[4]; [26]
  % Reduction in Estrogenic Activity, Solid Portion (n = 3): 40%
[4]; Table 28, 50 ppm Ferrate
  % Reduction in Estrogenic Activity, Solid Portion (n = 3): 40%
[4]; [27]
  % Reduction in Estrogenic Activity, Solid Portion (n = 3): 43%
[4]; Table 28, 100 ppm Ferrate
  % Reduction in Estrogenic Activity, Solid Portion (n = 3): 27%
[4]; [28]
  % Reduction in Estrogenic Activity, Solid Portion (n = 3): 51%
[4]; Table 28, 200 ppm Ferrate
  % Reduction in Estrogenic Activity, Solid Portion (n = 3): 59%
[4]; [29]
  % Reduction in Estrogenic Activity, Solid Portion (n = 3): 29%
[4]; Table 29, 50 ppm Ferrate
  % Reduction in Estrogenic Activity, Solid Portion (n = 3): 30%
[4]; [30]
  % Reduction in Estrogenic Activity, Solid Portion (n = 3): 20%
[4]; Table 29, 100 ppm Ferrate
  % Reduction in Estrogenic Activity, Solid Portion (n = 3): 31%
[4]; [31]
  % Reduction in Estrogenic Activity, Solid Portion (n = 3): 30%
[4]; Table 29, 200 ppm Ferrate
  % Reduction in Estrogenic Activity, Solid Portion (n = 3): 29%
[5]
  surviving bacterial colonies (detection limit): < 10 CFU/ml
[11]
  inactivation (in words): inactivated
[7]
  log reduction (approximated): around three
  surviving bacterial colonies (detection limit): < 10 CFU/ml
[12]; Table 28 (aerobically digested biosolids, inferred b252), 50 ppm Ferrate
  % Reduction in Estrogenic Activity, Liquid Portion (n = 3): 84%
[12]; [26]
  % Reduction in Estrogenic Activity, Liquid Portion (n = 3): 85%
[12]; [27]
  % Reduction in Estrogenic Activity, Liquid Portion (n = 3): 90%
[12]; Table 28, 100 ppm Ferrate
  % Reduction in Estrogenic Activity, Liquid Portion (n = 3): 88%
[12]; [28]
  % Reduction in Estrogenic Activity, Liquid Portion (n = 3): 81%
[12]; Table 28, 200 ppm Ferrate
  % Reduction in Estrogenic Activity, Liquid Portion (n = 3): 89%
[12]; Table 29 (anaerobically digested biosolids, inferred b252), 50 ppm Ferrate
  % Reduction in Estrogenic Activity, Liquid Portion (n = 3): 68%
[12]; [29]
  % Reduction in Estrogenic Activity, Liquid Portion (n = 3): 71%
[12]; [30]
  % Reduction in Estrogenic Activity, Liquid Portion (n = 3): 74%
[12]; Table 29, 100 ppm Ferrate
  % Reduction in Estrogenic Activity, Liquid Portion (n = 3): 73%
[12]; [31]
  % Reduction in Estrogenic Activity, Liquid Portion (n = 3): 71%
[12]; Table 29, 200 ppm Ferrate
  % Reduction in Estrogenic Activity, Liquid Portion (n = 3): 72%

## CC/C(=C(\c1ccc(O)cc1)c1ccc(OCCN(C)C)cc1)c1ccccc1 [hydroxytamoxifen]
[13]
  response in the YES assay (in words): partial agonistic (estrogenic) response

Source: US20130032547A1, “STABILIZATION AND DISINFECTION OF WASTES USING HIGH ENERGY E-BEAM AND CHEMICAL OXIDANTS” (priority 2011, published 2013)
